Test results reported in patent publication US20060141587A1, “Process for the preparation of L-3, 4-dihydroxyphenylalanine by aerobic fermentation of a microorganism” (DSM IP Assets B.V., priority 2002, published 2006).

Legend:
[1] = Storage stability of L-dopa in fermentation broth, extracted water phase and reextraction medium (reactive extraction, HPLC); assay type: physicochemical; details: for change of L-dopa concentration during storage: room temperature, up to 600 h; for relative L-dopa concentration of untreated fermentation broth (sample A, pH = 7.5): pH 7.5, stored at room temperature; for relative L-dopa concentration of water phase of fermentation broth extracted by kerosene/D2EHPA (sample B, pH acidic): stored at room temperature; for relative L-dopa concentration of re-extracted organic phase by KCl (sample C, pH = 6.3): pH 6.3, stored at room temperature
Description: (§1) To perform the HPLC analysis, the HPLC 1100 system of Aegilent (Waldbronn, Germany) with a Diode Array Detector was used. The compounds were measured at a wavelength of 200 nm. A Nucleosil-120-5-C18 column (250×4 mm) from Macherey-Nagel was used as the solid phase. The column was eluted using a gradient starting with eluent A (10 mM H3PO4) and eluent B (100% acetonitril). Gradient: 0 min 2% B, 25 min up to 90% B, 27 min to 30 min 2% B. The elution rate was set at 1.2 ml/min, the column temperature was set at 40° C.
A sample of the fermentation broth in which L-dopa is present, prepared as described in example 6, which had been adjusted to pH 7,5 (sample A), was used. 5 ml kerosene containing 10% D2EHPA (pH acidic) was mixed vigorously with the same volume of sample A for 30 seconds on a vortex mixer. After separation of the two phases (about 10 minutes) the water phase containing L-dopa, the extraction medium (sample B) was stored at room temperature. L-dopa dissolved in the organic phase was reextracted by mixing 2 ml of the organic phase with 1 ml of 1 M KCl (pH=6.3) by shaking vigorously for 30s. After separation of the two phases (about 10 minutes), the water phase containing L-dopa, the reextraction medium (sample C) was stored at room temperature. The samples A, B and C were stored at room temperature for 600 hours and L-dopa concentrations were determined at several points in time (up to 600 hours). L-dopa concentrations were determined by HPLC analysis as a function of time (see: Table 3).

[2] = Stability of L-dopa in fermentation broth adjusted to different pH, stored at room temperature (HPLC); assay type: physicochemical; details: for L-dopa concentration, fermentation broth at pH 4.5 (sample 4): pH 4.5, room temperature; for L-dopa concentration, fermentation broth at pH 4.5 (sample 4) / L-dopa concentration, fermentation broth at pH 5.5 (sample 3) / L-dopa concentration, fermentation broth at pH 6.5 (sample 2) / L-dopa concentration, fermentation broth at pH 7.5 (sample 1): broth at pH 4.5 related to 10; for L-dopa concentration, fermentation broth at pH 5.5 (sample 3): pH 5.5, room temperature; for L-dopa concentration, fermentation broth at pH 6.5 (sample 2): pH 6.5, room temperature; for L-dopa concentration, fermentation broth at pH 7.5 (sample 1): pH 7.5, room temperature
Description: as §1
A sample of the fermentation broth in which L-dopa is present, prepared as described in example 6, which had been adjusted to pH 7.5 (sample 1), pH 6.5 (sample 2), pH 5.5 (sample 3) and pH 4.5 (sample 4) was used. The samples 1, 2, 3 and 4 were stored at room temperature for 600 hours and L-dopa concentrations were determined at several points in time (up to 600 hours). L-dopa concentrations were determined by HPLC analysis as a function of time (see: Table 4) with the […], i.e. fermentation broth at pH 4.5, related to 10.

[3] = Stability of L-dopa during fed-batch fermentation with and without pH-shift; assay type: physicochemical, Escherichia coli
Description: Cultivations in a fermentor were conducted in a 2.0 L bioreactor (Labfors, Infors; Switzerland) with 10% inoculation; which was cultivated at 33° C. The cultivation started at pH 6.7. The mineral fermentation medium (see composition above) was directly sterilized in the bioreactor together with the calibrated pH- and Oxygen-sensors.
pH was controlled by 17.5% NH4OH (1:2 diluted) and a 5 N KOH solution. A separate glucose feed (500 g·^−1) was started when the OD620nm was higher than 5. At OD620nm 10, which was reached after about 14 hours Isopropyl-beta-D-thiogalactopyranoside (IPTG) was added to a final concentration of 0.1 mM. […]
Biomass (OD620nm) and L-dopa concentrations were determined by HPLC analysis (see example 5 for HPLC conditions) as a function of time (see: Table 1). The L-dopa concentration at 43 hours was related to 10.
A fermentation was performed describes as in example 6 with the following differences:
At OD620nm 5 (reached after 7 hours) IPTG was added.
The L-dopa concentration reached after 32 hours was related to 10.

N[C@@H](Cc1ccc(O)c(O)c1)C(=O)O [L-dopa, L-3,4-dihydroxyphenylalanine]
change of L-dopa concentration during storage ([1]; after extraction of the broth with kerosene/D2EHPA (sample B, acidic pH)): decrease of concentration of L-dopa was nearly prevented
change of L-dopa concentration during storage ([1]; after re-extraction with KCl (sample C, pH 6.3)): no decrease of L-dopa concentration was observed
change of L-dopa concentration during storage ([1]; fermentation broth without kerosene/D2EHPA extraction (sample A, pH 7.5)): decreases during the storage time
relative L-dopa concentration of untreated fermentation broth (sample A, pH = 7.5) ([1]; 24 h): 0.7
relative L-dopa concentration of untreated fermentation broth (sample A, pH = 7.5) ([1]; 96 h): 0.7
relative L-dopa concentration of untreated fermentation broth (sample A, pH = 7.5) ([1]; 168 h): 0.6
relative L-dopa concentration of untreated fermentation broth (sample A, pH = 7.5) ([1]; 336 h): 0.5
relative L-dopa concentration of untreated fermentation broth (sample A, pH = 7.5) ([1]; 408 h): 0.4
relative L-dopa concentration of untreated fermentation broth (sample A, pH = 7.5) ([1]; 504 h): 0.4
relative L-dopa concentration of untreated fermentation broth (sample A, pH = 7.5) ([1]; 600 h): 0.3
relative L-dopa concentration of water phase of fermentation broth extracted by kerosene/D2EHPA (sample B, pH acidic) ([1]; 24 h): 0.8
relative L-dopa concentration of water phase of fermentation broth extracted by kerosene/D2EHPA (sample B, pH acidic) ([1]; 96 h): 0.7
relative L-dopa concentration of water phase of fermentation broth extracted by kerosene/D2EHPA (sample B, pH acidic) ([1]; 168 h): 0.7
relative L-dopa concentration of water phase of fermentation broth extracted by kerosene/D2EHPA (sample B, pH acidic) ([1]; 336 h): 0.8
relative L-dopa concentration of water phase of fermentation broth extracted by kerosene/D2EHPA (sample B, pH acidic) ([1]; 408 h): 0.7
relative L-dopa concentration of water phase of fermentation broth extracted by kerosene/D2EHPA (sample B, pH acidic) ([1]; 504 h): 0.8
relative L-dopa concentration of water phase of fermentation broth extracted by kerosene/D2EHPA (sample B, pH acidic) ([1]; 600 h): 0.7
relative L-dopa concentration of re-extracted organic phase by KCl (sample C, pH = 6.3) ([1]; 24 h): 0.3
relative L-dopa concentration of re-extracted organic phase by KCl (sample C, pH = 6.3) ([1]; 96 h): 0.3
relative L-dopa concentration of re-extracted organic phase by KCl (sample C, pH = 6.3) ([1]; 168 h): 0.3
relative L-dopa concentration of re-extracted organic phase by KCl (sample C, pH = 6.3) ([1]; 336 h): 0.4
relative L-dopa concentration of re-extracted organic phase by KCl (sample C, pH = 6.3) ([1]; 408 h): 0.4
relative L-dopa concentration of re-extracted organic phase by KCl (sample C, pH = 6.3) ([1]; 504 h): 0.4
relative L-dopa concentration of re-extracted organic phase by KCl (sample C, pH = 6.3) ([1]; 600 h): 0.4
L-dopa concentration, fermentation broth at pH 4.5 (sample 4) ([2]; 24 h): 10
L-dopa concentration, fermentation broth at pH 4.5 (sample 4) ([2]; 96 h): 10
L-dopa concentration, fermentation broth at pH 4.5 (sample 4) ([2]; 168 h): 10
L-dopa concentration, fermentation broth at pH 4.5 (sample 4) ([2]; 336 h): 10
L-dopa concentration, fermentation broth at pH 4.5 (sample 4) ([2]; 408 h): 10
L-dopa concentration, fermentation broth at pH 4.5 (sample 4) ([2]; 504 h): 10
L-dopa concentration, fermentation broth at pH 4.5 (sample 4) ([2]; 600 h): 10
L-dopa concentration, fermentation broth at pH 5.5 (sample 3) ([2]; 24 h): 9
L-dopa concentration, fermentation broth at pH 5.5 (sample 3) ([2]; 96 h): 9
L-dopa concentration, fermentation broth at pH 5.5 (sample 3) ([2]; 168 h): 9
L-dopa concentration, fermentation broth at pH 5.5 (sample 3) ([2]; 336 h): 9
L-dopa concentration, fermentation broth at pH 5.5 (sample 3) ([2]; 408 h): 9
L-dopa concentration, fermentation broth at pH 5.5 (sample 3) ([2]; 504 h): 8
L-dopa concentration, fermentation broth at pH 5.5 (sample 3) ([2]; 600 h): 8
L-dopa concentration, fermentation broth at pH 6.5 (sample 2) ([2]; 24 h): 7
L-dopa concentration, fermentation broth at pH 6.5 (sample 2) ([2]; 96 h): 7
L-dopa concentration, fermentation broth at pH 6.5 (sample 2) ([2]; 168 h): 7
L-dopa concentration, fermentation broth at pH 6.5 (sample 2) ([2]; 336 h): 5
L-dopa concentration, fermentation broth at pH 6.5 (sample 2) ([2]; 408 h): 5
L-dopa concentration, fermentation broth at pH 6.5 (sample 2) ([2]; 504 h): 4
L-dopa concentration, fermentation broth at pH 6.5 (sample 2) ([2]; 600 h): 4
L-dopa concentration, fermentation broth at pH 7.5 (sample 1) ([2]; 24 h): 6
L-dopa concentration, fermentation broth at pH 7.5 (sample 1) ([2]; 96 h): 6
L-dopa concentration, fermentation broth at pH 7.5 (sample 1) ([2]; 168 h): 5
L-dopa concentration, fermentation broth at pH 7.5 (sample 1) ([2]; 336 h): 4
L-dopa concentration, fermentation broth at pH 7.5 (sample 1) ([2]; 408 h): 3
L-dopa concentration, fermentation broth at pH 7.5 (sample 1) ([2]; 504 h): 3
L-dopa concentration, fermentation broth at pH 7.5 (sample 1) ([2]; 600 h): 2
effect of pH of the fermentation broth on stability of L-dopa ([2]; pH 7.5 to 4.5, room temperature, up to 600 h): lower pH values of the fermentation broth increase the stability of L-dopa
stability of L-dopa in the fermentation ([3]; fermentation at pH 6.7, no pH-shift): less stable
stability of L-dopa in the fermentation ([3]; fermentation with pH-shift from pH 6.7 to pH 5.8): stable
